Data as given in patent publication US20120315290A1, “INHIBITORS OF LL-37 MEDIATED IMMUNE REACTIVITY TO SELF NUCLEIC ACIDS” (BOARD OF REGENTS, THE UNIVERSITY OF TEXAS SYSTEM, priority 2006, published 2012).

How the values were obtained:
[1] = tested on: murine pDC; assay: Murine pDC stimulation with peptide/DNA complexes (IFN-a ELISA); assay type: cell-based, mouse; conditions: complexed with DNA
Procedure: Murine pDC were generated from Flt3 ligand supplemented BM cultures and isolated by sorting of CD11c+CD11b-B220+ cells, as previously described. 50,000 murine pDC in […] of complete medium were stimulated with human LL-37 ([…]), mouse CRAMP ([…]), DNA alone, or DNA plus LL-37 or DNA plus CRAMP. After overnight culture supernatants were collected and tested for IFN-a by ELISA.
Murine pDC respond to LL-37-DNA complexes. To determine whether mouse pDCs can respond to LL-37/DNA complexes, we purified mouse pDCs from Flt3L-supplemented BM cultures according to their CD11c+CD11b-B220+ phenotype, and stimulated them with DNA complexed with LL-37 or CRAMP (the murine LL-37 homologue). […] However, compared to LL-37, approximately 3 times more CRAMP was required to elicit the same amount of type I IFNs (FIG. 27).

[2] = target: T1, TLR7 (Homo sapiens, UniProt Q9NYK1); assay: Inhibition of IFN-α induction in pDC by TLR7 agonist imiquimod; assay type: cell-based
T1 construct: PDC from healthy donors were purified from freshly collected buffy coats; endogenous in cells; host or cells: primary human pDC sorted from buffy coats of healthy donors
T1 sequence (Q9NYK1 27-1049): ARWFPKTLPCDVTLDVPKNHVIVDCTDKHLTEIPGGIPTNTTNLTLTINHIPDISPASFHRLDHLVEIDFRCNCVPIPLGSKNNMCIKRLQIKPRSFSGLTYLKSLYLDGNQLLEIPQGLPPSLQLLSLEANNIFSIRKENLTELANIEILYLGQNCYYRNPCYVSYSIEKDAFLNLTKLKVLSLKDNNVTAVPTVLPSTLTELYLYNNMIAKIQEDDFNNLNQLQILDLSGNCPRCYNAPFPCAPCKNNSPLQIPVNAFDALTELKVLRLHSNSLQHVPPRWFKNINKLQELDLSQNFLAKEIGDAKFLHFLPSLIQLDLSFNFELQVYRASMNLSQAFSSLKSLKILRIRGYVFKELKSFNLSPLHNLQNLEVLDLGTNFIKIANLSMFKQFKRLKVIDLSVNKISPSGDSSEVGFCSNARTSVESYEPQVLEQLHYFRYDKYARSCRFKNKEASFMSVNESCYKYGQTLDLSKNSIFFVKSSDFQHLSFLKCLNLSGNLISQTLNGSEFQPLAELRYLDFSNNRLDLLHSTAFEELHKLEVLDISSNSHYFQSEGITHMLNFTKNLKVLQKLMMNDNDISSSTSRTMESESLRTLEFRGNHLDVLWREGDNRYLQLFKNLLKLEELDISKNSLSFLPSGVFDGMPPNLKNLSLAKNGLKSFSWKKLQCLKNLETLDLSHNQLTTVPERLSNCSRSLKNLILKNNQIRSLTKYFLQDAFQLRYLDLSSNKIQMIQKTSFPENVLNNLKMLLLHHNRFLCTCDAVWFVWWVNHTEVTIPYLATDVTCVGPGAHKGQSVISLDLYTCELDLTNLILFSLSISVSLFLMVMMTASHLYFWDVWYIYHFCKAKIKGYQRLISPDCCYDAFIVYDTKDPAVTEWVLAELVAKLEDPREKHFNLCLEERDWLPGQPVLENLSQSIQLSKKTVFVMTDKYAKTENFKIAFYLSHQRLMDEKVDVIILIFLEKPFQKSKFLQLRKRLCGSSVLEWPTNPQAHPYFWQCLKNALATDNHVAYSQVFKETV
Procedure: (§1) (A) pDC were stimulated with LL-37 (10 μM) in the presence of pertussis toxin (PTX) or KN62 to block the FPRL-1 and the P2X pathway respectively. Furthermore agonistic W peptide and ATP were used to stimulate these pathways on pDC. (B) pDC were stimulated with LL-37 (10 μM) in the presence of increasing concentrations of chloroquine to block the endosomal TLR pathway. (C) PDC were pre-treated DNase I, TLR-9 inhibitor (IRS, 4 μM) or ctrl ODN sequences for 30 min and followed by incubation with LL-37 (10 μM), CpG 2216 (CpGA, 1 μM) or imiquimod (R837,10 μg/ml) for 24 h (A). The culture supernatants were analyzed for IFN-α production by ELISA. One representative experiment of three is shown.
(§2) PDC from healthy donors were purified from freshly collected buffy coats. Briefly, PBMC were isolated by Ficoll-Hypaque density gradient centrifugation (GE Healthcare, Piscatway, N.J.) followed by positive sorting using anti-BDCA4-conjugated magnetic microbeads (Miltenyi Biotec, Auburn, Calif.). […]
(§3) Supernatants samples were taken after 18-24 h after addition of the stimuli. Human IFN-α was measured using a human IFN-α ELISA kit (PBL Biomedical Laboratories, New Brunswick, N.J.) according to the company's instructions. IL-6 and TNF-α were detected using a kit for human IL6 and TNF-α (R&D Systems), respectively.

[3] = tested on: LL-37-mediated activation of pDC; assay: Inhibition of LL-37-mediated IFN-α induction in pDC; assay type: cell-based, human; conditions: pDC stimulated with LL-37 (10 μM) in presence of the substance
Procedure: as §1
Heparin (an anionic sugar) was preincubated for ½ h with LL-37 before stimulating pDC (thus associating with self-DNA released by dying cells in culture) or before adding genomic human DNA and subsequently stimulating pDC.
PDC from healthy donors were purified from freshly collected buffy coats. Briefly, PBMC were isolated by Ficoll-Hypaque density gradient centrifugation (GE Healthcare, Piscatway, N.J.) followed by positive sorting using anti-BDCA4-conjugated magnetic microbeads (Miltenyi Biotec, Auburn, Calif.). The recovered cells were stained with PE-Cy5-conjugated anti-CD4, APC-conjugated CD11c, and a cocktail of FITC-conjugated anti-CD3, anti-CD14, anti-CD16, anti-CD15, anti-CD20 and anti-CD56 (Lineage-FITC) (BD Pharmingen, San Diego, Calif.). The CD4+CD11c-Lin- (pDC precursors) were isolated by cell sorting. Purity was routinely >99%. PDC (5-10×10^4/well) were cultured in 96-well round-bottom plates in RPMI 1640 (GIBCO, Carlsbad, Calif.) supplemented with 10% FCS (Atlanta Biologicals, Lawrenceville, Ga.). Where indicated, pDC were stimulated with CpGA (1 μM), CpGB (1 μM), R837 (10 ug/ml), IRS (4 uM), non-CpG sequence (4 uM), and different concentrations of LL-37 and of human genomic DNA. To prepare LL-37.DNA complexes, CpGB, huDNA, non-CpG and LL-37 were mixed by inversion and incubated for 30 min at room temperature before being added to the cells.
as §3

[4] = target: T2, TLR-9 (Homo sapiens, UniProt Q9NR96); assay: Inhibition of IFN-α induction in pDC by TLR-9 agonist CpG sequences; assay type: cell-based
T2 construct: PDC from healthy donors were purified from freshly collected buffy coats; endogenous in cells; host or cells: primary human pDC sorted from buffy coats of healthy donors
T2 sequence (Q9NR96 26-1032): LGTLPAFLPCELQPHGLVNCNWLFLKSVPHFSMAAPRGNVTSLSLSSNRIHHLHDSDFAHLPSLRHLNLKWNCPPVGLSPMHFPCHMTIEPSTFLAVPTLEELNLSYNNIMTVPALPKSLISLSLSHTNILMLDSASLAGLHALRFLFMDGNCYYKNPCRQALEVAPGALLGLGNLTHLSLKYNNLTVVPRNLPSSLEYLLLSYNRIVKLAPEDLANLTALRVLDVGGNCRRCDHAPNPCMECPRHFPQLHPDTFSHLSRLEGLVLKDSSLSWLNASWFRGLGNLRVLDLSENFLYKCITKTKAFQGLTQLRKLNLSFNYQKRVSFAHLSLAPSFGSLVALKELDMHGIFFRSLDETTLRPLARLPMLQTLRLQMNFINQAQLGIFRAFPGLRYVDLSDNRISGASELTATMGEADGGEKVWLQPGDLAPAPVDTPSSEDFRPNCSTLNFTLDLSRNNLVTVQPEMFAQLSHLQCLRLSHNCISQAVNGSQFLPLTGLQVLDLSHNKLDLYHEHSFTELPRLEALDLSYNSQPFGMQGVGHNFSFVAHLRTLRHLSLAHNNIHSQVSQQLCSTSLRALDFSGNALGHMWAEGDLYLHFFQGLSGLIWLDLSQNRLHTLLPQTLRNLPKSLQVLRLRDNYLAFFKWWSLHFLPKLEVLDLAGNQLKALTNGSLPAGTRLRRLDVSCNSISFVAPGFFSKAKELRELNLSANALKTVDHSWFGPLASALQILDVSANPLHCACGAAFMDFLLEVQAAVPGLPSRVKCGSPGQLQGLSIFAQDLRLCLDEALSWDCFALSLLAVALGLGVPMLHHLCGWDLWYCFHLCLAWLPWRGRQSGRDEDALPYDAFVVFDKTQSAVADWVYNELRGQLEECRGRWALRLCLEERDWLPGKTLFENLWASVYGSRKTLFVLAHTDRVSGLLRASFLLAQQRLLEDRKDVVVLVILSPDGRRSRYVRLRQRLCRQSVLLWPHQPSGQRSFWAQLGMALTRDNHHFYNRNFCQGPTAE
Procedure: as §1, §2, §3

Substance | Amount required to elicit the same amount of type I IFNs, compared to LL-37 [1] | Effect on IFN-α induction by TLR7 agonist imiquimod in pDC [2] | Effect on IFN-α induction by LL-37 in pDC [3] | Effect on IFN-α induction by TLR-9 agonist CpG sequences in pDC [4]
CRAMP | approximately 3 times |  |  | 
TTTAGGGTTAGGGTTAGGGTTAGGG (listed as DNA, chemistry not given here) [IRS] |  | not TLR7 agonist imiquimod | inhibited pDC activation to produce IFN-α | block IFN-α induction by TLR-9 agonist CpG-sequences
